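Protocol summary: plate cells (96-well), add compound at 5 concentrations, incubate 48 h, interpolate endpoints linearly. GI50 = concentration required for 50% inhibition of growth.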 The source made the active and inactive calls. Cut-off read from the data, not from the text of the source: active = GI50 up to about 1.1 µM and inactive = higher.
Key:
Assay in all cases: NCI anticancer screen, dose series, 48 h
[1] = tested on: ACHN
[2] = tested on: CCRF-CEM
[3] = tested on: DU-145
[4] = tested on: EKVX
[5] = tested on: HT-29
[6] = tested on: Hs-578T
[7] = tested on: IGROV-1
[8] = tested on: KM12
[9] = tested on: LOX IMVI
[10] = tested on: MCF7
[11] = tested on: NCI-H23
[12] = tested on: OVCAR-5
[13] = tested on: SF-268
[14] = tested on: SF-295
[15] = tested on: SF-539
[16] = tested on: SK-MEL-5
[17] = tested on: SNB-75
[18] = tested on: SW-620
[19] = tested on: T47D
[20] = tested on: UACC-62

SMILES | GI50 [1] | GI50 [2] | GI50 [3] | GI50 [4] | GI50 [5] | GI50 [6] | GI50 [7] | GI50 [8] | GI50 [9] | GI50 [10] | GI50 [11] | GI50 [12] | GI50 [13] | GI50 [14] | GI50 [15] | GI50 [16] | GI50 [17] | GI50 [18] | GI50 [19] | GI50 [20]
COc1cc(Oc2nc3c(N)cc(C(F)(F)F)cc3nc2-c2ccccc2)cc(OC)c1OC | 4.55 µM (inactive) | 4.9 µM (inactive) | 8.55 µM (inactive) | 13.1 µM (inactive) | 1.49 µM (inactive) | 3.69 µM (inactive) | 0.916 µM (active) | 2.17 µM (inactive) | 3.48 µM (inactive) | 3.17 µM (inactive) | 2.82 µM (inactive) | 31.3 µM (inactive) | 4.66 µM (inactive) | 1.95 µM (inactive) | 3.4 µM (inactive) | 2.77 µM (inactive) | 1.23 µM (inactive) | 3.07 µM (inactive) | 5.81 µM (inactive) | 1.66 µM (inactive)
CCOC1C=CCCO1 (stereo not given) | > 100 µM (inactive) | > 100 µM (inactive) | > 100 µM (inactive) | > 100 µM (inactive) | > 100 µM (inactive) | > 100 µM (inactive) | > 100 µM (inactive) | > 100 µM (inactive) | > 100 µM (inactive) | > 100 µM (inactive) | > 100 µM (inactive) | > 100 µM (inactive) | > 100 µM (inactive) | > 100 µM (inactive) | > 100 µM (inactive) | > 100 µM (inactive) | > 100 µM (inactive) | > 100 µM (inactive) | 0.701 µM (active) | > 100 µM (inactive)
CC1=NN(c2cccc(Cl)c2)C2(C1)SCC(=O)N2c1nc2ccccc2s1 (stereo not given) | 26.8 µM (inactive) | 21.8 µM (inactive) | 24.6 µM (inactive) | 29.7 µM (inactive) | 27.1 µM (inactive) | 41.1 µM (inactive) | 21.9 µM (inactive) | 25.5 µM (inactive) | 20.2 µM (inactive) | 25.6 µM (inactive) | 29.2 µM (inactive) | 37 µM (inactive) | 31.2 µM (inactive) | 23.2 µM (inactive) | 22.8 µM (inactive) | 17.5 µM (inactive) | 13.2 µM (inactive) | 32.6 µM (inactive) | 19.8 µM (inactive) | 29.5 µM (inactive)
CCCC[N+](CCCC)(CCCC)CCCC.O=S(=O)([O-])ON=C1c2ccccc2-c2ccccc21 | > 100 µM (inactive) | > 100 µM (inactive) | > 100 µM (inactive) | > 100 µM (inactive) | > 100 µM (inactive) | > 100 µM (inactive) | > 100 µM (inactive) | > 100 µM (inactive) | > 100 µM (inactive) | > 100 µM (inactive) | > 100 µM (inactive) | > 100 µM (inactive) | > 100 µM (inactive) | > 100 µM (inactive) | > 100 µM (inactive) | 61.5 µM (inactive) | > 100 µM (inactive) | > 100 µM (inactive) | > 100 µM (inactive) | > 100 µM (inactive)
Cc1cc2nc3ccccc3n2c2ccccc12 | > 10 µM (inactive) | 5.96 µM (inactive) | > 10 µM (inactive) | 1.81 µM (inactive) | > 10 µM (inactive) | > 10 µM (inactive) | > 10 µM (inactive) | > 10 µM (inactive) | > 10 µM (inactive) | > 10 µM (inactive) | > 10 µM (inactive) | > 10 µM (inactive) | > 10 µM (inactive) | > 10 µM (inactive) | > 10 µM (inactive) | > 10 µM (inactive) | > 10 µM (inactive) | > 10 µM (inactive) | > 10 µM (inactive) | > 10 µM (inactive)
